Reference: US20100184037A1, “DEATH ASSOCIATED PROTEIN KINASE 1 (DAPK1) AND USES THEREOF FOR THE TREATMENT OF CHRONIC LYMPOCYTIC LEUKEMIA” (THE OHIO STATE UNIVERSITY RESEARCH FOUNDATION, priority 2007, published 2010)

Legend:
DAPK1 = test: Decitabine treatment of Raji cells, RT-PCR for DAPK1; assay type: cell-based; details: for 3, 6, 9, and 12 days
Text: Next we treated Raji cells with 0.51.LM Decitabine for 3, 6, 9, and 12 days.
Blood was obtained from patients with B-cell CLL through the CLL Research Consortium (CRC), from the Ohio State University and Uppsala University tissue banks. CLL patients from OSU and CRC consortium and healthy volunteers provided written informed consent using Institutional Review Board-approved protocols. Written consent for Uppsala samples was provided according to the declaration of Helsinki. Seven CD 19+ selected CLL samples were obtained by positive selection using magnetic beads conjugated to anti-CD19 (MACS, Miltenyi Biotec, Auburn Calif.). The resulting cells are at least 95% CD19 positive. All patients had immunophenotypically defined CLL as outlined by the modified 96 NCI criteria (Cheson et al., 1996) and for Uppsala samples, according to WHO classification. The CLL cell line WaC3CD5, described previously (Wendel-Hansen et al., 1994), Jurkat, Raji and lymphoblastoid cell lines were incubated (37° C. and 5% C02) in RPMI 1640 supplemented with 10% FBS (HyClone Laboratories, Logan, Utah), 2 mM L-glutamine, 100 U/ml penicillin, and 100 μg/ml streptomycin (all from Invitrogen, Carlsbad Calif.). […]
Semi-quantitative RT-PCR was performed as described previously (Liu et al., 2006). […] The expression data was analyzed by comparative Ct method. […]

DAPK1 promoter = test: Bisulfite sequencing of the BS1 region of Decitabine-treated Raji cells; assay type: cell-based; details: Decitabine 0.5 μM, untreated 55%
Method: FIG. 2F—Bisulfite treatment for untreated and 6 and 12 days 5-aza-2′-deoxycytidine treated (0.5 μM) Raji cells. Bisulfite treated DNA was amplified for the BS1 region (c.1-1509 to c.1-1262) comprising 30 CpGs and cloned. Sequencing was done for 7-10 clones for each sample. Each row represents a clone. The open circles indicate unmethylated CpG, and closed circles indicate methylated CpG. The overall methylation frequency is given in (%) on the right.
One microgram of genomic DNA was treated with sodium […] according to published protocols (Herman et al., 1996). Regions BS1 and BS2 were amplified (primers are available upon request). The PCR product was purified using the Qiagen Gel Extraction kit (Qiagen, Chatsworth, Calif.) according to the manufacturer's protocol and subcloned using the TOPO TA-Cloning kit (Invitrogen) followed by sequencing of 8-10 clones for each sample using ABI big dye technology.

**Q.** Which “DAPK1 expression (RT-PCR)” value (DAPK1) does the source give for `Nc1ncn([C@H]2C[C@H](O)[C@@H](CO)O2)c(=O)n1` [Decitabine, 5-aza-2′-deoxycytidine] here?
**A.** Its value is “gradual up-regulation of DAPK1 expression”.

**Q.** What about the “DNA methylation of CpG dinucleotides, BS1 region” value (DAPK1 promoter; day 6 (70/240)) of the same compound?
**A.** Its value is 29%.

**Q.** What about the “DNA methylation of CpG dinucleotides, BS1 region” value (DAPK1 promoter; day 12 (68/270)) of the same compound?
**A.** The value was 25%.
